Reference: article PMC4693163, “Candida albicans Shed Msb2 and Host Mucins Affect the Candidacidal Activity of Salivary Hst 5” (Pathogens, 2015)

What was measured:
porcine mucin = assay: Hst 5 degradation analysis with porcine mucin (10 KDa cut-off filtrate, LC/MS); format: in vitro ADME; settings: 37 °C, 1 h
Procedure: (§1) We next investigated whether the effect of these proteins on Hst 5 activity is related to complexation and Hst 5 sequestration or as a result, instead, of degradation caused by potential contaminating proteases that may be present in these commercial proteins. For this, 40 μM Hst 5 was incubated for 1 h at 37 °C with either 50 or 500 μg/mL porcine mucin or 40 μM albumin, respectively, and spun through a Centricon® 10 KDa molecular weight cut-off column that would allow Hst 5 and smaller peptides to pass through followed by Liquid Chromatography/Mass Spectrometry analysis of the eluate.
(§2) Proteolytic stability—For Hst 5 degradation analysis, Hst 5 was incubated with the required concentration of respective proteins for 1 h at 37 °C; and the reaction mixture was spun through a Centricon® 10 KDa cut-off column (Millipore UFC501024, Amicon Ultra-0.5 centrifugal filter unit with Ultracel-10 membrane), diluted in water with 2%TFA (trifluoroacetic acid) to 40 ug/mL of peptide, and analyzed by Liquid Chromatography/Mass Spectrometry utilizing a C18 column and an API3000 triple quadrupole mass spectrometer (Applied Biosystems, Foster City, CA,USA). The mass spectrum of Hst 5 gave a distribution of charge states with the most abundant being the M + 4 at 760 Da.

[1] = system: C. albicans Msb2 domain mutant cells; assay: Candidacidal assay on HA-tagged Msb2 domain mutant cells; format: cell-based, Candida albicans; settings: Figure 6
Description: C. albicans strains with HA-tagged Msb2 and its domain mutants were constructed previously. These mutants consisted of versions of Msb2 lacking each of the major functional domains: ED1/2Δ lacking residues 100–900 of the glycosylated extracellular region so that shed Msb2 is truncated with low glycosylation; ED4Δ cells lacking Msb2 residues 900–1250 within the cleavage domain of Msb2 resulting in constitutive shedding of Msb2 due to loss of cell tethering; and TM-CYTΔ cells lacking residues 1250–1409 that comprise the transmembrane and cytoplasmic signaling domain of Msb2 so that Msb2 is cleaved and shed in the absence of signaling. Briefly, Msb2 deletion derivative strains were constructed by a PCR-based approach using the URA-Blaster technique. PCR primers were designed to amplify the 3HA-URA3–3HA cassette in plasmid pCaMPY-3XHA [26], tailed with an additional 80 nucleotides of sequence flanking the open reading frame (ORF) of the region to be disrupted. PCR products were verified by gel electrophoresis. The purified PCR product (10 μg) was transformed into the Δmsb2/MSB2 strain with Frozen-EZ Yeast Transformation II Kit (Zymo Research, CA, USA). Uracil-deficient agar (YNB-URA) media was used for selection of URA positive colonies. PCR-based analysis of transformants was performed with primer pairs internal to the wild-type locus and the URA cassette. Homozygous transformants were reverted to the URA negative phenotype by selection on 5-fluororotic acid (5-FOA). Domain deletion knockouts were verified by immunoblot analysis.
(§3) Candidacidal assays—The susceptibility of C. albicans cells to Hst 5 was measured using microdilution plate assays in triplicate as previously described, with some modifications for experiments involving rSap6 and mucins. Briefly, Hst 5 was incubated with the required concentration of respective proteins for 1 h at 37 °C before performing the candidacidal assay. For heat inactivated control of rSaps, protein was heat inactivated at 120 °C for 10 min before using in the candidacidal assay.

Candida albicans = assay: Candidacidal assay (microdilution plate) of Hst 5 after pre-incubation with proteins; format: cell-based; settings: 37 °C, 1 h
Procedure: as §3

albumin = target: T1, albumin (Bos taurus, UniProt P02769); assay: Hst 5 degradation analysis with albumin (10 KDa cut-off filtrate, LC/MS); format: in vitro ADME; settings: 40 μM Hst 5 with 40 μM albumin, 37 °C, 1 h, C18 column
T1 construct: purchased Sigma Aldrich A2153
T1 sequence (P02769 25-607): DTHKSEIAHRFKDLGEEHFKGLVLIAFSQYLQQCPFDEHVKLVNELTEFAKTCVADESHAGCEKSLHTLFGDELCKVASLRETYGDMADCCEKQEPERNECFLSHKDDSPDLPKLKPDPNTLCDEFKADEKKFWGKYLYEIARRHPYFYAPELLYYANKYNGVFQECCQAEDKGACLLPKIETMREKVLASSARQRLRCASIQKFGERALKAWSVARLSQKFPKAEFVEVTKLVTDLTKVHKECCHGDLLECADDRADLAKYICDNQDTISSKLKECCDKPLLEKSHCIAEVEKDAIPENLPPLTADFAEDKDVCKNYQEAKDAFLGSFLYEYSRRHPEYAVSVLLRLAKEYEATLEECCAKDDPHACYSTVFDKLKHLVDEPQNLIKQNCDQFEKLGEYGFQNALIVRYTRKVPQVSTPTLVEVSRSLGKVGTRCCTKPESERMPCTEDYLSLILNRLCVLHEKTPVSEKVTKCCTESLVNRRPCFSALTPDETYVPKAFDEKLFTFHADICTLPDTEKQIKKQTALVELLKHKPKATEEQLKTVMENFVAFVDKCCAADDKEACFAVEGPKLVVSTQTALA
Procedure: as §1, §2

rSap 6 = target: T2, rSap 6 (Candida albicans, UniProt Q5AC08); assay: Proteolytic stability of Hst 5 with rSap 6 (10 KDa cut-off filtrate, LC/MS); format: in vitro ADME; settings: 2:1 Hst 5: Sap 6, 37 °C, 1 h, C18 column, peaks m/z 760, 608, 507
T2 construct: made in house
T2 sequence (Q5AC08 77-418): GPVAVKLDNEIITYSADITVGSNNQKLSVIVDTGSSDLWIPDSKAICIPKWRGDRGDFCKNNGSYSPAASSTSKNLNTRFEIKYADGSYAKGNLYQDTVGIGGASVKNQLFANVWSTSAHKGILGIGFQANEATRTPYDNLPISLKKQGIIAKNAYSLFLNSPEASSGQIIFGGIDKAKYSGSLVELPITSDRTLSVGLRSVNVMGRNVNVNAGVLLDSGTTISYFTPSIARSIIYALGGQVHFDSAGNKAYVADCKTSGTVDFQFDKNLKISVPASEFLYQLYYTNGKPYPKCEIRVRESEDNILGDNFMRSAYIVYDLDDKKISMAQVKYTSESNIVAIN
Procedure: To further address whether Sap 6 degrades Hst 5, we spun the 2:1 Hst 5: Sap 6 incubation mixture through a Centricon® 10 KDa molecular weight cut-off column that would allow Hst 5 and smaller peptides to pass through; and subjected the eluate to Liquid Chromatography/Mass Spectrometry. […] Analysis of these fragments to determine Sap6-specific cleavage sites within Hst 5 is ongoing.
as §2

Histatin 5 = target: T3, Histatin 5 (UniProt P15516)
T3 sequence (peptide): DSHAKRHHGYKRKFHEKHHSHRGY

C[C@H](NC(=O)[C@H](Cc1cnc[nH]1)NC(=O)[C@H](CO)NC(=O)[C@@H](N)CC(=O)O)C(=O)N[C@@H](CCCCN)C(=O)N[C@@H](CCCNC(=N)N)C(=O)N[C@@H](Cc1cnc[nH]1)C(=O)N[C@@H](Cc1cnc[nH]1)C(=O)NCC(=O)N[C@@H](Cc1ccc(O)cc1)C(=O)N[C@@H](CCCCN)C(=O)N[C@@H](CCCNC(=N)N)C(=O)N[C@@H](CCCCN)C(=O)N[C@@H](Cc1ccccc1)C(=O)N[C@@H](Cc1cnc[nH]1)C(=O)N[C@@H](CCC(=O)O)C(=O)N[C@@H](CCCCN)C(=O)N[C@@H](Cc1cnc[nH]1)C(=O)N[C@@H](Cc1cnc[nH]1)C(=O)N[C@@H](CO)C(=O)N[C@@H](Cc1cnc[nH]1)C(=O)N[C@@H](CCCNC(=N)N)C(=O)NCC(=O)N[C@@H](Cc1ccc(O)cc1)C(=O)O [Hst 5, Histatin 5]
intact Hst 5 mass peaks after incubation (porcine mucin; 40 μM Hst 5 with 500 μg/mL porcine mucin, M + 4 (760) peak still observed at lower intensity): almost complete disappearance of m/z peaks at 507 and 608
intact Hst 5 mass peaks after incubation (porcine mucin; 40 μM Hst 5 with 50 or 500 μg/mL porcine mucin, C18 column): large dose-dependent decrease in the intensity of all three m/z peaks
Hst 5 killing compared with WT ([1]; ED1/2Δ cells (release truncated Msb2 shed domain), p > 0.05): killing similar to WT Msb2-HA cells
Hst 5 killing compared with WT ([1]; ED4Δ cells (constitutively shed Msb2), p > 0.05): killing similar to WT Msb2-HA cells
Hst 5 killing compared with WT ([1]; TM-CYTΔ cells (lack transmembrane and cytoplasmic domain of Msb2)): reduced killing
Hst 5 killing ([1]; cells lacking Msb2 (msb2Δ, no shedding), compared to other sMsb2 defective strains): killing was not significantly reduced
effect on Hst 5 candidacidal activity (Candida albicans; Hst 5 30 μM pre-incubated with heat inactivated rSap 6 (120 °C, 10 min)): did not affect Hst 5 activity
effect on Hst 5 candidacidal activity (Candida albicans; Hst 5 30 μM with porcine gut mucin 5 μg/mL): no effect on Hst 5 activity
effect on Hst 5 candidacidal activity (Candida albicans; Hst 5 30 μM with porcine gut mucin 50 μg/mL): no effect on Hst 5 activity
intact Hst 5 mass peaks after incubation (albumin): reduction in the peak intensity of all 3 m/z peaks for intact Hst 5 with no emergence of any significant lower m/z peaks
intact Hst 5 mass peaks after incubation with protease (rSap 6): completely disappeared

purified full-length shed domain of Msb2 (domain or fragment)
candidacidal activity (percent killing of C. albicans) of 30 uM Hst 5 after 1 h at 37 C with equimolar sMsb2; 70% without added protein (Histatin 5): 38 % killing

albumin (from UniProt P02769 25-607) (natural protein)
candidacidal activity (percent killing of C. albicans) of 30 uM Hst 5 after 1 h at 37 C with equimolar albumin; 70% without added protein (Histatin 5): 50 % killing

B1: fetuin (natural protein)
chain: IPLDPVAGYKEPACDDPDTEQAALAAVDYINKHLPRGYKHTLNQIDSVKVWPRRPTGEVYDIEIDTLETTCHVLDPTPLANCSVRQQTQHAVEGDCDIHVLKQDGQFSVLFTKCDSSPDSAEDVRKLCPDCPLLAPLNDSRVVHAVEVALATFNAESNGSYLQLVEISRAQFVPLPVSVSVEFAVAATDCIAKEVVDPTKCNLLAEKQYGFCKGSVIQKALGGEDVRVTCTLFQTQPVIPQPQPDGAEAEAPSAVPDAAGPTPSAAGPPVASVVVGPSVVAVPLPLHRAHYDLRHTFSGVASVESSSGEAFHVGKTPIVGQPSIPGGPVRLCPGRIRYFKI
modifications: glycosylated
candidacidal activity (percent killing of C. albicans) of 30 uM Hst 5 after 1 h at 37 C with equimolar fetuin; 70% without added protein (Histatin 5): 50 % killing
